Tested on: Lewis-Brown Norway F1 Hybrid cardiac allografts in Lewis recipients
Experiment: acute cardiac allograft rejection model (procedure of Kupiec-Weglinski)
Type: in vivo, rat
Details: for GRAFT SURVIVAL MEAN ± SD: N=7
Method: The therapeutic efficacy of a pharmaceutical composition of the invention was tested according to the procedure of Kupiec-Weglinski, J. W., et al., (1988) Transplant Proc. 20:207-216 (hereinafter “Kupiec-Weglinski”) to determine its in vivo potency as an acute transplantation/graft rejection modulator.
Briefly, to preform these experiments, the following protocol was employed. Male inbred adult rats (Lewis-Brown Norway F1 Hybrid rats, obtained from Harlan sprague—Dawley Inc., Indianapolis, Ind.) were used. Lewis-Brown Norway F1 Hybrid cardiac allografts were transplanted to the abdominal great vessels of Lewis recipients. The animals were administered compounds according to the following five distinct regimens.
Protocol I. Pretreatment Protocol—20 mg/kg/day of Compound A was administered orally for 7 consecutive days prior to transplantation (days −7 to −1).
Protocol II Treatment Protocol—20 mg/kg/day of Compound A was administered orally for 7 consecutive post-transplant days (days 0-6) followed by intermittent 5 day courses (days 9-13 and 16-20).
Protocol III Pretreatment and Treatment Protocol—20 mg/kg/day of Compound A was administered orally for 7 consecutive days prior to transplantation (days −7 to −1) followed by intermittent 5 day courses (days 9-13 and 16-20).
Ventricular contractions were assessed daily by palpation through the recipient flank. Rejection was defined as the day of cessation of myocardial contractions and confirmed histologically.

CCCC1(CCC)CCC2(CCN(CCCN(C)C)C2)CC1 [Compound A, N,N-dimethyl-8,8-dipropyl-2-azaspiro [4,5]-decane-2-propanamine]
average graft survival time (Compound A alone (pretreatment, treatment or pretreatment and treatment protocol), untreated average 7 days): 16 days | GRAFT SURVIVAL MEAN ± SD (Protocol I pretreatment: Compound A 20 mg/kg/day orally, days -7 to -1): 14.7 ± 5.8 days | GRAFT SURVIVAL MEAN ± SD (Protocol II treatment: Compound A 20 mg/kg/day orally, days 0-6, then days 9-13 and 16-20): 16.7 ± 2.0 days | GRAFT SURVIVAL MEAN ± SD (Protocol III pretreatment and treatment: Compound A 20 mg/kg/day orally, days -7 to -1, then days 9-13 and 16-20): 16.0 ± 4.3 days | graft survival time (transplants routinely retained) (combination protocol: Compound A 20 mg/kg/day orally plus cyclosporin A […] by injection, days 0-6): over 40 days
